# According to patent US20090036434A1, “Substituted aryl and heteroaryl derivatives as modulators of metabolism and the prophylaxis and treatment of disorders related thereto” (Arena Pharmaceuticals, Inc., priority 2004, published 2009):
# What was measured:
# RUP3 [1] = target: T1, RUP3 (Mus musculus, UniProt Q7TQP3); experiment: Oral glucose tolerance test (oGTT) in mice; assay type: in vivo; details: for Mean % Inhibition of Glucose Excursion: male C57bl/6J mice, dextrose 3 g/Kg oral; for Blood glucose after glucose challenge: male C57bl/6J mice, 1, 3 or 10 mg/Kg p.o.
# T1 construct: randomly grouped (n=5) to receive a RUP3 agonist (either Compound B3 or B124); from tissue; host or cells: whole animal (male C57bl/6J mice), in vivo
# T1 sequence (Q7TQP3 1-335): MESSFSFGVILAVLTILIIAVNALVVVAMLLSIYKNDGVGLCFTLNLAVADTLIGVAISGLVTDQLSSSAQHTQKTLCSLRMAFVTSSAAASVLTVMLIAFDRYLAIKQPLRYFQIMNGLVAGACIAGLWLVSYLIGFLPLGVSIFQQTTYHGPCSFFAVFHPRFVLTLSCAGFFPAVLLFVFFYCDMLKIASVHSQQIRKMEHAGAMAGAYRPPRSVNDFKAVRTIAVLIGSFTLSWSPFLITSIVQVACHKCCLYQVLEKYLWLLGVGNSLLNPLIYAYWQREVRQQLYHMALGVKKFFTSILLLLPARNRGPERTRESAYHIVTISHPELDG
# Procedure: Male C57bl/6J mice at approximately 8 weeks of age were fasted for 18 hours and randomly grouped (n=5) to receive a RUP3 agonist (either Compound B3 or B124) at 1, 3 or 10 mg/Kg. Compounds were delivered orally via a gavage needle (p.o., volume 10 mL/Kg). At time 0, levels of blood glucose were assessed using a glucometer (Elite XL, Bayer), and mice were administered either vehicle (20% hydroxypropyl-beta-cyclodextrin) or test compound. Thirty minutes after administration of test compound, levels of blood glucose were again assessed, and mice were administered dextrose orally at a dose of 3 g/Kg. Blood glucose measurements were then taken 20 min, 40 min, 60 min and 120 min after this time.
# RUP3 [2] = target: T2, RUP3 (Homo sapiens, UniProt Q8TDV5); experiment: Melanophore dispersion assay, RUP3 dose responses; assay type: cell-based; details: melanophores transfected with RUP3 expression vector
# T2 construct: expressed in transfected cells; host or cells: melanophores (cultured per Potenza and Lerner 1992), electroporated with the RUP3 expression vector (pCMV)
# T2 sequence (Q8TDV5 1-335): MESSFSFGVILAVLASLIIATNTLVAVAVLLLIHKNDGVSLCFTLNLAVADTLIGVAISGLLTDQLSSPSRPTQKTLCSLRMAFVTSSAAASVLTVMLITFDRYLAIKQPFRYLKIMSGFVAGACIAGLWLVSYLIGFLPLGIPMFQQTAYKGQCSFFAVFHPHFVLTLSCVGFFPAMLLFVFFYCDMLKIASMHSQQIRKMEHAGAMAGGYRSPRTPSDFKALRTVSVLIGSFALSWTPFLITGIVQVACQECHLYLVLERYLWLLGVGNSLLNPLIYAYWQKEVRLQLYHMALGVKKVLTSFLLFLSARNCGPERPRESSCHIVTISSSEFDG
# Procedure: Melanophores are maintained in culture as reported by Potenza, M. N. and Lerner, M. R., in Pigment Cell Research, Vol. 5, 372-378, 1992 and transfected with the RUP3 expression vector (pCMV) using electroporation. Following electroporation, the transfected cells are plated into 96 well plates for the assay. The cells are then allowed to grow for 48 hours in order to both recover from the electroporation procedure and attain maximal receptor expression levels.
# On the assay day, the growth medium on the cells is replaced with serum-free buffer containing 10 nM melatonin. The melatonin acts via an endogenous Gi-coupled GPCR in the melanophores to lower intracellular cAMP levels. In response to lowered cAMP levels, the melanophores translocate their pigment to the center of the cell. The net effect of this is a significant decrease in the absorbance reading of the cell monolayer in the well, measured at […].
# After a 1-hour incubation in melatonin, the cells become completely pigment-aggregated. At this point a baseline absorbance reading is collected. Serial dilutions of test compounds are then added to the plate and compounds that stimulate RUP3 produce increases in intracellular cAMP levels. In response to these increased cAMP levels, the melanophores translocate their pigment back into the cell periphery. After one hour, stimulated cells are fully pigment-dispersed. The cell monolayer in the dispersed state absorbs much more light in the 600-650 nm range. The measured increase in absorbance compared to the baseline reading allows one to quantitate the degree of receptor stimulation and plot a dose-response curve.
# The compounds in the above examples were screened using the melanophore dispersion assay, as described above.
SMILES,EC50 (RUP3 [2]) [nM],Mean % Inhibition of Glucose Excursion (RUP3 [1]; 1 mg/Kg p.o.) [%],Mean % Inhibition of Glucose Excursion (RUP3 [1]; 3 mg/Kg p.o.) [%],Mean % Inhibition of Glucose Excursion (RUP3 [1]; 10 mg/Kg p.o.) [%],Blood glucose after glucose challenge (RUP3 [1])
"CC(C)OC(=O)N1CCC(Oc2cc(Nc3ccc(S(C)(=O)=O)cc3F)ncn2)CC1 [Compound B3, 4-[6-(2-Fluoro-4-methanesulfonyl-phenylamino)-pyrimidin-4-yloxy]-piperidine-1-carboxylic acid isopropyl ester]",,14.83,22.03,39.31,lowered blood glucose in a dose-dependent manner
"Cc1ccc(Nc2cc(OC3CCN(C(=O)OC(C)(C)C)CC3)ncn2)cc1F [Compound B16, 4-[6-(3-Fluoro-4-methyl-phenylamino)-pyrimidin-4-yloxy]-piperidine-1-carboxylic acid tert-butyl ester]",62,,,,
"CCCNc1ccc(Nc2cc(OC3CCN(C(=O)OC(C)C)CC3)ncn2)c(C)c1 [Compound B124, 4-[6-(2-Methyl-4-propylamino-phenylamino)-pyrimidin-4-yloxy]-piperidine-1-carboxylic acid isopropyl ester]",,0,5.49,21.94,lowered blood glucose in a dose-dependent manner

# Further lines, with some results ahead:
EC50 (RUP3 [2]) [nM],SMILES,Mean % Inhibition of Glucose Excursion (RUP3 [1]; 1 mg/Kg p.o.) [%],Mean % Inhibition of Glucose Excursion (RUP3 [1]; 3 mg/Kg p.o.) [%],Mean % Inhibition of Glucose Excursion (RUP3 [1]; 10 mg/Kg p.o.) [%],Blood glucose after glucose challenge (RUP3 [1])
128,"COc1ccc(Nc2cc(OC3CCN(C(=O)OC(C)(C)C)CC3)ncn2)cc1F [Compound B21, 4-[6-(3-Fluoro-4-methoxy-phenylamino)-pyrimidin-4-yloxy]-piperidine-1-carboxylic acid tert-butyl ester]",,,,
48,"CC(C)OC(=O)N1CCC(Oc2cc(Oc3ccc(Br)cc3F)ncn2)CC1 [Compound B143, 4-[6-(4-Bromo-2-fluoro-phenoxy)-pyrimidin-4-yloxy]-piperidine-1-carboxylic acidisopropyl ester]",,,,
